Among the data in ChEMBL document CHEMBL1144629, “Synthesis and in vivo antihyperglycemic activity of nature-mimicking furanyl-2-pyranones in STZ-S model” (2007) are Activity values, retold here.

What all share (assay type): functional
Holding throughout (design): scale not given: the % may be the effect or the level left

In assay [1] the test system is Rattus norvegicus. Nature of the assay: Antihyperglycemic activity in STZ-induced diabetic Sprague-Dawley rat assessed as decrease in blood glucose at 100 mg/kg, po after 24 hrs relative to control.
Assay [2] deals with Rattus norvegicus. Nature of the assay: Antihyperglycemic activity in STZ-induced diabetic Sprague-Dawley rat assessed as decrease in blood glucose at 100 mg/kg, po after 180 mins relative to control.
Assay [3] concerns Rattus norvegicus. Nature of the assay: Antihyperglycemic activity in STZ-induced diabetic Sprague-Dawley rat assessed as decrease in blood glucose at 100 mg/kg, po after 240 mins relative to control.
The test system of assay [4] is Rattus norvegicus. As to the kind of experiment: Antihyperglycemic activity in STZ-induced diabetic Sprague-Dawley rat assessed as decrease in blood glucose at 100 mg/kg, po after 30 mins relative to control.
The test system of assay [5] is Rattus norvegicus. Nature of the assay: Antihyperglycemic activity in STZ-induced diabetic Sprague-Dawley rat assessed as decrease in blood glucose at 100 mg/kg, po after 90 mins relative to control.
In assay [6] the test system is Rattus norvegicus. As to the kind of experiment: Antihyperglycemic activity in STZ-induced diabetic Sprague-Dawley rat assessed as decrease in blood glucose at 100 mg/kg, po after 120 mins relative to control.
Assay [7] concerns Rattus norvegicus. Nature of the assay: Antihyperglycemic activity in STZ-induced diabetic Sprague-Dawley rat assessed as decrease in blood glucose at 100 mg/kg, po after 5 hrs relative to control.
Assay [8] relates to Rattus norvegicus. Nature of the assay: Antihyperglycemic activity in STZ-induced diabetic Sprague-Dawley rat assessed as decrease in blood glucose at 100 mg/kg, po after 60 mins relative to control.

On to `Cc1cc(-c2cc(N3CCC(C)CC3)c(C#N)c(=O)o2)c(C)o1`, for which the Activity amounted to 4.2% in assay [1]; 2.6% in assay [2]; 2.8% in assay [3]; 12.5% in assay [4]; 20.9% in assay [5]; 16.8% in assay [6]. The Activity in assay [7] is on record as 5.5%; in assay [8], 16.3%.

As to `Cc1cc(-c2cc(N3CCOCC3)c(C#N)c(=O)o2)c(C)o1`, the Activity in assay [1] came to 29.7%; in assay [2], 18.5%; in assay [3] it was 20.7%; in assay [4], 16.6%; in assay [5], 24%; in assay [6], 29%. The Activity is on record as 20.3% in assay [7] and 18.4% in assay [8].

Regarding `N#Cc1c(N2CCCCC2)cc(-c2ccco2)oc1=O`, the Activity was determined as 10.4% in assay [1]; 7.5% in assay [2]; 1.4% in assay [3]; 12.8% in assay [4]; 21.1% in assay [5]; 21.3% in assay [6]. Moreover, the Activity is on record as 4.8% in assay [7] and 17.5% in assay [8].

On to `CN(C)C(=N)NC(=N)N` [METFORMIN], for which the Activity turned out to be 30% in assay [1]; 18.7% in assay [2]; 21.1% in assay [3]; 15.9% in assay [4]; 24.5% in assay [5]; 29.2% in assay [6]. The results for the Activity in assay [7] and in assay [8] were 20.7% and 18.2%, respectively.

For `CSc1cc(-c2cc(C)oc2C)oc(=O)c1C(N)=O`, the Activity in assay [1] came to 23.9%; in assay [2], 16.3%; in assay [3], 12.6%; in assay [4] it was 13.2%; in assay [5], 33%; in assay [6], 29.4%. In addition, the values for the Activity in assay [7] and in assay [8] were 11.2% and 28.8%, respectively.

On to `Cc1cc(-c2cc(N3CCCCC3)c(C#N)c(=O)o2)c(C)o1`, for which the Activity in assay [1] turned out to be 19.7%; in assay [2] it was 0.8%; in assay [3], 1%; in assay [4], 8.6%; in assay [5] it was 6.8%; in assay [6] it was 8.7%. Moreover, the Activity in assay [7] worked out at 5.2%; in assay [8], 9.4%.

For the compound `N#Cc1c(N2CCOCC2)cc(-c2ccco2)oc1=O`, the Activity in assay [1] is recorded as 0.5%; in assay [2], 1.8%; in assay [3] it was 5.2%; in assay [4], 13.1%; in assay [5], 19.8%; in assay [6], 17.4%. Besides, the Activity in assay [7] is recorded as 9.8%; in assay [8] it was 15.9%.

In the case of `N#Cc1c(N2CCN(c3ccccc3)CC2)cc(-c2ccco2)oc1=O`, the Activity is recorded as 2.5% in assay [1]; 1.9% in assay [2]; 3.9% in assay [3]; 11.8% in assay [4]; 20.2% in assay [5]; 15.9% in assay [6]. The results for the Activity in assay [7] and in assay [8] were 6.1% and 15.7%, respectively.

Take `CSc1cc(-c2cc(C)oc2C)oc(=O)c1C#N`: the Activity in assay [1] worked out at 4.5%; in assay [2] it was 2.3%; in assay [3], 2.5%; in assay [4] it was 12.6%; in assay [5], 21.2%; in assay [6] it was 16.5%. For the same compound, the Activity in assay [7] was determined as 5.2%; in assay [8], 16.2%.

Regarding `CSc1cc(-c2ccco2)oc(=O)c1C(N)=O`, the Activity was found to be 19.3% in assay [1]; 1.2% in assay [2]; 1.3% in assay [3]; 8.5% in assay [4]; 6.3% in assay [5]; 8.9% in assay [6]. The results for the Activity in assay [7] and in assay [8] were 5.52% and 9.6%, respectively.

As to `CN1CCN(c2cc(-c3ccco3)oc(=O)c2C#N)CC1`, the Activity in assay [1] stood at 20%; in assay [2] it was 16.8%; in assay [3], 14.6%; in assay [4] it was 12.5%; in assay [5], 17.3%; in assay [6], 22.8%. Besides, the Activity in assay [7] amounted to 12.8%; in assay [8], 17.5%.

On to `Cc1cc(-c2cc(N3CCCC3)c(C#N)c(=O)o2)c(C)o1`, for which the Activity in assay [1] was 10.5%; in assay [2] it was 7.8%; in assay [3] it was 1.2%; in assay [4], 12.5%; in assay [5], 20.9%; in assay [6] it was 20.9%. Further, the figures for the Activity in assay [7] and in assay [8] were 4.5% and 17.3%, respectively.

With `CSc1cc(-c2ccco2)oc(=O)c1C#N`, the Activity in assay [1] is 6.7%; in assay [2] it was 8.1%; in assay [3], 2.3%; in assay [4], 11.8%; in assay [5], 19.6%; in assay [6] it was 19.8%. Moreover, the Activity in assay [7] was 6.8%; in assay [8], 16.5%.
